Key:
SERCA2a = molecular target: T1, SERCA2a (Mus musculus, UniProt O55143); assay: Caffeine-induced Ca2+ release assay in HL-1 cells (FLIPR Calcium 6); type: cell-based; conditions: HL-1 cells, 2 h incubation at various concentrations, 10 mM caffeine
T1 construct: host or cells: HL-1 cells
Text: It is known that caffeine stimulates the release of calcium from intracellular stores in cells by acting as a RyR activator.[39],[40] The binding site for caffeine is located on the cytosolic side of the protein between the C-terminal and the S2S3 domain.[41] When caffeine binds to RyR2, it interacts with specific amino acids on the protein, which causes conformational changes in the protein’s structure.[42] This opens the RyR2 channel pore, enabling the mass release of calcium ions from the SR. We investigated the effect of caffeine-induced Ca^2+ release in HL-1 cells treated with cytosolic Ca^2+ indicator FLIPR Calcium 6 (Molecular Devices). The HL-1 cell line is an immortalized mouse cardiomyocyte cell line commonly used to study the effects of various substances on cell function.[43] If the tested compound modulates SERCA2a activation, it will cause an increase in Ca^2+ concentration in the SR and the effect of a fixed dose of caffeine on SR Ca^2+ release will be potentiated by increasing doses of a proposed SERCA activator.[26] As a positive control, we used CDN1163, a small-molecule SERCA activator, which is at present in a clinical trial due to its potential therapeutic use for certain cardiac conditions.[27]
HL-1 cells (50,000 per well) were cultivated for 24 h in black-walled, clear-bottom 96-well microplates (Corning, Amsterdam, The Netherlands) covered with fibronectin/gelatin (Merck KGaA, Darmstadt, Germany) in a humidified incubator at 37 °C and 5% CO2.
Changes in Ca^2+ concentration were measured on a multiwell plate reader TECAN Spark 20 M using a FLIPR 6 Calcium Assay Kit from Molecular Devices (Molecular Devices LLC, München, Germany) at 37 °C. The 1000 × stock solutions of the test compounds were prepared in DMSO. A 100 μL solution of test compound in Tyrode’s solution containing FLIPR Calcium 6 dye was incubated for 2 h at 37 °C and 5% CO2 in a humidified incubator. The time courses were recorded in each well. Fluorescence was evoked at 485 nm excitation wavelength and read out in a bottom-read mode at 525 nm. Data were recorded every 2 s, exposure −20 flashes, excitation bandwidth −10 nm, emission bandwidth −15 nm. To initiate Ca^2+ influx, 25 μL of 50 mM caffeine solution in Tyrode’s solution containing 2 mM CaCl2 was injected in each well (speed 100 μL/s) at the 10 s time point, resulting in 10 mM final concentration in the well. The differences between the caffeine-induced peak minus basal fluorescence, ΔFCaff, were taken into account for the analysis. The Tyrode’s solution +0.1 v/v% DMSO was used as a control. The dose–response curves were calculated using the software package GraphPad Prism version 8.3.1. All data are presented as mean ± SD from eight independent experiments. Y = bottom + (top – bottom)/(1 + 10^((LogEC50 – X) × HillSlope)) was used, where HillSlope describes the steepness of the curve and top and bottom are plateaus in the units of the Y axis.

RyR2 = molecular target: T2, RyR2 (Mus musculus, UniProt E9Q401); assay: Time-lapse [Ca2+]ER assay (RyR2 R-CEPIA1er assay) in HEK-293 cells with inducible WT RyR2; type: cell-based; conditions: for effect on [Ca2+]ER / R-CEPIA1er fluorescence (F/F0): 25 μM, vs 0.1 v/v% DMSO
T2 construct: expressed in transfected cells; host or cells: HEK-293 cells stably expressing R-CEPIA1er with doxycycline-inducible WT RyR2
T2 sequence (E9Q401 whole entry): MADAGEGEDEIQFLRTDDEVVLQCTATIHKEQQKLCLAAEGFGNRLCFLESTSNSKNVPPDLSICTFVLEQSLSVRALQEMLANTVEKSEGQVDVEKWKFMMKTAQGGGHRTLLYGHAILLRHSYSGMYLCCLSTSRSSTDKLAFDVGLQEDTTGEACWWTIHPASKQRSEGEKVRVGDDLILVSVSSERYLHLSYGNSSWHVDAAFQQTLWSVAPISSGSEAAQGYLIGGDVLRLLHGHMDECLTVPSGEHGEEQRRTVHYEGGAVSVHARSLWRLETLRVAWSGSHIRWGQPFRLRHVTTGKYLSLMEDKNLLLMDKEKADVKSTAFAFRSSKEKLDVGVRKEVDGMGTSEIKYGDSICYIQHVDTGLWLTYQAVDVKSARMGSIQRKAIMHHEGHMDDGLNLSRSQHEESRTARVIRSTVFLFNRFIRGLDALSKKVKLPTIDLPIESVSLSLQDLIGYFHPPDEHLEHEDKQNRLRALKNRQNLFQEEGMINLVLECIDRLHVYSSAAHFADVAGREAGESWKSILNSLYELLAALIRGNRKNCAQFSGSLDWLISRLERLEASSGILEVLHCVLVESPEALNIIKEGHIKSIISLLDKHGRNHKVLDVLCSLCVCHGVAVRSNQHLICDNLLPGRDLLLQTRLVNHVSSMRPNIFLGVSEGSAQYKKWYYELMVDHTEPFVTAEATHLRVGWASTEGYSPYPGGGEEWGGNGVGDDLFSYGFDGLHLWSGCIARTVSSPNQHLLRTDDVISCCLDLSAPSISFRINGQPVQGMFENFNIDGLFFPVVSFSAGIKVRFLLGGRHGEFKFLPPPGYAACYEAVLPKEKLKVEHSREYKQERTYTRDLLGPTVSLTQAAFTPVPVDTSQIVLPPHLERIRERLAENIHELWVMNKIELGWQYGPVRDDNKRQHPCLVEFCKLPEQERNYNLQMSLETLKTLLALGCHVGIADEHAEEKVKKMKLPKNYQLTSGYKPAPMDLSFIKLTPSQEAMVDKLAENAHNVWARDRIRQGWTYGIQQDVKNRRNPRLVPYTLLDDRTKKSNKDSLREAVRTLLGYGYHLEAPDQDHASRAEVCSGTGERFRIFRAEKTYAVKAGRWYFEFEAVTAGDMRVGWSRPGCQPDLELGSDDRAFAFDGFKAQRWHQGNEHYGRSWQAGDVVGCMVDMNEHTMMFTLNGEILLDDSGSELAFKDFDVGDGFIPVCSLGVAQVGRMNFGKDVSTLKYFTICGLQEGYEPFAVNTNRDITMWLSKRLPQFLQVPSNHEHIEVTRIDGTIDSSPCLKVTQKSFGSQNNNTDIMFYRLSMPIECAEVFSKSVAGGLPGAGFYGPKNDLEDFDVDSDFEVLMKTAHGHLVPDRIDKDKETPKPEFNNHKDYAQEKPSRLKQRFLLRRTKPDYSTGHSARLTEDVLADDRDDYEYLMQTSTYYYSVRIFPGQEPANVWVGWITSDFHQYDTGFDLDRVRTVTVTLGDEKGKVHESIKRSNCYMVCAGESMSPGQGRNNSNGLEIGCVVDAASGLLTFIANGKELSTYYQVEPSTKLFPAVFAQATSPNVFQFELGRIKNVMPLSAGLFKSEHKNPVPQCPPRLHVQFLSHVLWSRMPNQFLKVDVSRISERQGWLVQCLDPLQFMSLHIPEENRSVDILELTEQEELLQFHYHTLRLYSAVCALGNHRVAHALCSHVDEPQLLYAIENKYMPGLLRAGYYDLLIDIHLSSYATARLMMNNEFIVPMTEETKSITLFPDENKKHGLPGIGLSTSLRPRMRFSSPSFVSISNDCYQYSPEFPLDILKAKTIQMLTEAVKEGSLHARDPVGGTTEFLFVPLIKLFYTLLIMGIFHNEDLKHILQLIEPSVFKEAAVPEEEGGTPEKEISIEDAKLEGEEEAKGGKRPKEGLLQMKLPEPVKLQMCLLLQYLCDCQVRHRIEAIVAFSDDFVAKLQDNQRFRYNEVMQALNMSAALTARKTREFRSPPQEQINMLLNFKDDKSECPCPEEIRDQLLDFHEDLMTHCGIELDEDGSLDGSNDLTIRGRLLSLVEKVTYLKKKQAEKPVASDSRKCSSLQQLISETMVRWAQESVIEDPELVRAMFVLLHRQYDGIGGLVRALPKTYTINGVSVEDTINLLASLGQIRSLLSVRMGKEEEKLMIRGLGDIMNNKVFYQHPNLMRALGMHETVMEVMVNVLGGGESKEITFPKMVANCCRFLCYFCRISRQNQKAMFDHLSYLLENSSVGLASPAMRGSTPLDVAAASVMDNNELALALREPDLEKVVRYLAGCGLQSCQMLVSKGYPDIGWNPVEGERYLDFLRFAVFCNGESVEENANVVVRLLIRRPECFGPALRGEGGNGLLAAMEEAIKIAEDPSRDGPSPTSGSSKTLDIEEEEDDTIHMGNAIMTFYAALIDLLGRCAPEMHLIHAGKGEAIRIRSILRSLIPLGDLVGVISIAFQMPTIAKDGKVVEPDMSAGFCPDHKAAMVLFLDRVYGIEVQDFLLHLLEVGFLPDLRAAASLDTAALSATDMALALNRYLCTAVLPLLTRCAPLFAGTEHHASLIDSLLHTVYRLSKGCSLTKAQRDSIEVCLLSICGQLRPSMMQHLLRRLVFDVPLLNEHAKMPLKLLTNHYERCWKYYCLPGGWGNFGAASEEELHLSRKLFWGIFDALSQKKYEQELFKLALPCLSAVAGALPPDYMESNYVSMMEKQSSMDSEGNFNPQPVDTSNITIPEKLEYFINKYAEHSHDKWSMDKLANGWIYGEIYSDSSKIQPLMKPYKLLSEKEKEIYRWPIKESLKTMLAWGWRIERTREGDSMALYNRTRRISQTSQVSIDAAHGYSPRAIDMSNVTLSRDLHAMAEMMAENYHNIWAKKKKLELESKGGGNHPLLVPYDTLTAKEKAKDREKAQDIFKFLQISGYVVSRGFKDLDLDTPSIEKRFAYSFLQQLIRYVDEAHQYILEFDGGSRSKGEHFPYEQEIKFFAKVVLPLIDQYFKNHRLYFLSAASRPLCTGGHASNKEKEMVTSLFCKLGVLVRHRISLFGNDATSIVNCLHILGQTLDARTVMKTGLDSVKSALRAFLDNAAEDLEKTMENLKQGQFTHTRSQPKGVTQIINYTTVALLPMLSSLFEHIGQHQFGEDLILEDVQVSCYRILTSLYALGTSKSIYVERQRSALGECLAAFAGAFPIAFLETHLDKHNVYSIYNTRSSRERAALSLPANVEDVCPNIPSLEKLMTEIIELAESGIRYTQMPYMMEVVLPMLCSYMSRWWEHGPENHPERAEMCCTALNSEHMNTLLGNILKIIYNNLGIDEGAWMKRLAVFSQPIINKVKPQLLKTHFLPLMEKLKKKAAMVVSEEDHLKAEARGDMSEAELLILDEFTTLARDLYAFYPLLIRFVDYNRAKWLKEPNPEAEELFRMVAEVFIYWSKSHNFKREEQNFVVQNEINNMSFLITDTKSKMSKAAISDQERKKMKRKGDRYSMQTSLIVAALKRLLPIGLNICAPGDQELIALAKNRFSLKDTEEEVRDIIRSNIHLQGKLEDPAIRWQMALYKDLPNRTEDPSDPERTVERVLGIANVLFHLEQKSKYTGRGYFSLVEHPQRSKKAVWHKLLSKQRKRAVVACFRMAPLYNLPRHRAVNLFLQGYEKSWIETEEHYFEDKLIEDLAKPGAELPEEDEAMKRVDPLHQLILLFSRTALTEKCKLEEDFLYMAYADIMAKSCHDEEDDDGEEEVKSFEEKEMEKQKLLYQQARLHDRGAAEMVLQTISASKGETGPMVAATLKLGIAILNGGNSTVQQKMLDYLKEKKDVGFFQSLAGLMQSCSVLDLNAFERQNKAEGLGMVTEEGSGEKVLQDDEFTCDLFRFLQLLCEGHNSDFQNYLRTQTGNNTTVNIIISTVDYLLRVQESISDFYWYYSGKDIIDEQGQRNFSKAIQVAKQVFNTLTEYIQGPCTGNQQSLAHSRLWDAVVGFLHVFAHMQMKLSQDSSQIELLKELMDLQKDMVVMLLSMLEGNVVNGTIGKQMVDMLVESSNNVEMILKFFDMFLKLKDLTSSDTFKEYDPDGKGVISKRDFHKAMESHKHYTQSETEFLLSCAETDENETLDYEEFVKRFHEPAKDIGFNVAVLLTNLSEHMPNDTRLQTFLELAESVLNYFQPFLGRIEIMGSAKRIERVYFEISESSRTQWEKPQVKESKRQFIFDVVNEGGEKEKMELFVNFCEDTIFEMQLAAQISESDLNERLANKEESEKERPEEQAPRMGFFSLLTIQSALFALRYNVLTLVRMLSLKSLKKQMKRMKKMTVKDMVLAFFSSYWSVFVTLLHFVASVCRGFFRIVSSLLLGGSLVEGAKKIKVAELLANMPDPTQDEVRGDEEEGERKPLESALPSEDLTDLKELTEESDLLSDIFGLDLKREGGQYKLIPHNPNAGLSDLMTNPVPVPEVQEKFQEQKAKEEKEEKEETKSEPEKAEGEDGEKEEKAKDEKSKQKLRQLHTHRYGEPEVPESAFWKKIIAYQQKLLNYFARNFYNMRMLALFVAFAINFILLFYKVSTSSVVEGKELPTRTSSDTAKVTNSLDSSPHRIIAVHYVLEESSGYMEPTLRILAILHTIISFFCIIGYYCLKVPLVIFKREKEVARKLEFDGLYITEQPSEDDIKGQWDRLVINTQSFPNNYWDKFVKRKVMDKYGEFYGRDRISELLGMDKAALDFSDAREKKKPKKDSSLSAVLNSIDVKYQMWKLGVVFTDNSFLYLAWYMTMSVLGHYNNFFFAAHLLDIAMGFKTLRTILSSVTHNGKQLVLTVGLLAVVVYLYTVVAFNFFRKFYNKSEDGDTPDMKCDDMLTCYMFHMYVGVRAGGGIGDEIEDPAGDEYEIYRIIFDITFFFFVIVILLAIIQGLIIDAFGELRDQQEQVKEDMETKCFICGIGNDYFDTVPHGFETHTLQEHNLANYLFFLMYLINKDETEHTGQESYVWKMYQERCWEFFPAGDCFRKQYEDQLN
Text: To assess the functional potency of novel agents for modulating RyR2 channel activity, we measured changes in Ca^2+ levels in ER of HEK-293 cells with inducible expression of wild-type RyR2 (WT RyR2).[33],[34] Because the expression of WT RyR2 introduces an additional spontaneous Ca^2+ leak from the ER, these cells are suitable for our purpose of testing potential RyR2 stabilizers.[35] The cells additionally stably express the Ca^2+ fluorescence indicator R-CEPIA1er, which is a genetically encoded sensor protein of Ca^2+ in the ER (the cell line was a gift from T. Murayama, Department of Pharmacology, Juntendo University School of Medicine, Tokyo, Japan).[36]
The addition of these compounds, which are known to inhibit excessive cardiac RyR2 activity, should reduce Ca^2+ leak from the ER, thus increasing the R-CEPIA1er fluorescence.
The fluorescence plate reader [Ca^2+]ER assay was performed according to the slightly modified protocol of Murayama and Kurebayashi.[36] […] After the cells were inducted with doxycycline for 24 h, changes in ER calcium concentrations [Ca^2+]ER were measured on a multiwell plate reader TECAN Spark 20 M at 37 °C. The 1000 × stock solutions of the test compounds were prepared in DMSO. Briefly, the culture medium was removed and 100 μL of Tyrode’s solution containing 2 mM CaCl2 was added to the cells. The time courses were recorded in each well. Fluorescence was evoked by a 560 nm excitation wavelength and collected in a bottom-read mode at 610 nm. Data was recorded every 10 s, exposure −20 flashes, excitation bandwidth −20 nm, emission bandwidth −20 nm. 100 μL of 0–100 μM solution of test compound in Tyrode’s solution containing 2 mM CaCl2 was injected in each well (speed 100 μL/s) at the 90 s time point. […] The 0.1 v/v% DMSO and 2 mM CaCl2 Tyrode’s solution was used as a control.
The dose–response curves were calculated using the software package GraphPad Prism version 8.3.1. (GraphPad Software, Inc.). All data are presented as mean ± SD in three independent experiments. Y = bottom + (top – bottom)/(1 + 10^((LogEC50 – X) × HillSlope)) was used, where HillSlope describes the steepness of the curve, and top and bottom are plateaus in the units of the Y-axis.

[1] = CytoTox-Glo Cytotoxicity Assay; type: cell-based; conditions: mouse; HL-1 cells, 100 μM solutions, 24 h incubation
Protocol: Cell viability was assessed using the CytoTox-Glo Cytotoxicity Assay according to the manufacturing procedure (Promega GmbH). Briefly, HL-1 cells were cultivated for 24 h in black-walled, clear-bottom 96-well microplates (Corning) covered with fibronectin in DMEM, containing different concentrations of the tested compound (10,000 cells/well). Luminescence of a luminogenic peptide substrate was measured before and after the addition of the lysis reagent (digitonin). The viable cell contribution was determined by a subtractive method. 0.1% DMSO-treated cells were taken as a control.

[2] = Membrane permeability, PermeaPad Plate (cell-free transport model); type: in vitro ADME; conditions: for Pe: 24 h, room temperature; for Pe class (low/medium/high; poor): class word printed beside Pe, no key given
Protocol: Membrane permeability was assessed using PermeaPad Plate according to the manufacturing procedure (innoME GmbH, Espelkamp, Germany). Briefly, 200 μL of water was added into the acceptor plate. 200 μL of 100–500 μM test compound in water was added directly to the well membranes of the donor plate. The donor plate contains a biomimetic membrane for simulating passive mass transfer through different barriers in the body. Then, the donor plate was placed into the acceptor plate wells and incubated at room temperature for 24 h in the dark. To determine the peak absorbance of test compounds, absorbance spectra of acceptor solutions and initial solutions for each test compound were read out. The permeability rate (Pe) was calculated using the formula:
[drawing 1] , where ODA is the absorbance of acceptor solution and ODE is the absorbance of the standard solution; if the compound is able to permeabilize the membrane and fully reach equilibrium, 250 μM will be the final concentration of solution in the donor and acceptor wells. The coefficient C was calculated using the formula:
[drawing 2] , where VA is the acceptor volume (cm^3), VD is the donor volume (cm^3), the membrane area is 0.24 cm^2, and the time is 86,400 s.

Cc1ccc2cccc(NC(=O)c3ccc(OC(C)C)cc3)c2n1 [CDN1163, reference compound]
effect on caffeine-induced Ca2+ release (in words) (SERCA2a): clear dependence of the magnitude of the caffeine effect from the concentration of CDN1163

COc1ccc2c(c1)CN(C(=O)C(=O)O)CCS2 [S36, reference compound]
RyR2 effect class (RyR2; 25 μM (S107 1 mM per Figure 2), HEK-293 RyR2 R-CEPIA1er cells): +++
effect on [Ca2+]ER / R-CEPIA1er fluorescence (F/F0) (RyR2): increase in R-CEPIA1er fluorescence
viability at 24 h, 100 μM [1]: 94%
effect on caffeine-induced Ca2+ release (in words) (SERCA2a): no concentration-dependent effect
Pe [2]: 1.0 10^–6 cm/s
Pe class (low/medium/high; poor) [2]: poor permeability and low

COc1ccc2c(c1)CN(C)CCS2 [S107, 4-methyl-7-methoxy-2,3,4,5-tetrahydro-1,4-benzothiazepine, reference compound]
viability at 24 h, 100 μM [1]: 98%
effect on caffeine-induced Ca2+ release (in words) (SERCA2a): did not show any effects on SR Ca^2+ content
Pe [2]: 1.2 10^–6 cm/s
Pe class (low/medium/high; poor) [2]: medium

O=C1CN(/N=C/c2ccc(-c3ccc([N+](=O)[O-])cc3)o2)C(=O)N1 [dantrolene, reference compound]
effect on [Ca2+]ER / R-CEPIA1er fluorescence (F/F0) (RyR2): increase in R-CEPIA1er fluorescence

— PMC10726367 (Journal of Medicinal Chemistry, 2023)
